The text below walks through data of PubChem BioAssay (NCI).

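Five compound concentrations were applied to cells in 96-well plates for 48 hours; endpoints were derived by simple linear interpolation of the resulting dose-response curve. The concentration for full growth arrest is given as TGI.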

Test systems include DLD-1 colon; DMS 273 small cell lung; LXFL 529 NSCLC; M19-MEL melanoma; XF 498 CNS; SNB-78 CNS; HOP-18 NSCLC; P388 leukemia; P388/ADR leukemia; SN12K1 renal; RXF-631 renal.
Test in all cases: NCI tumour cell line growth inhibition, 48 h

With `O=C1CSC(C(N=Nc2ccc(Cl)cc2)c2nc3ccccc3[nH]2)=N1` (configuration not stated), the TGI in the experiment with DLD-1 colon was greater than 100 µM; in the experiment with DMS 273 small cell lung it was greater than 100 µM; in the experiment with LXFL 529 NSCLC it was greater than 100 µM; in the experiment with M19-MEL melanoma, greater than 100 µM; in the experiment with XF 498 CNS, 45.9 µM.

Turning to `CCCCc1c2c(nc3c1CC/C(=C\c1ccc([N+](=O)[O-])cc1)C3=O)CCCC2`, the TGI was found to be 3.42 µM with DLD-1 colon; 3.78 µM in the experiment with DMS 273 small cell lung; 2.68 µM in the experiment on LXFL 529 NSCLC; 4.59 µM in the experiment on M19-MEL melanoma; 4.38 µM in the experiment with SNB-78 CNS.

For `COc1cc2cc3c4c(cc(OC)c(OC)c4c2cc1OC)CCN3C(=O)CCC(=O)O`, the TGI in the experiment on DLD-1 colon, in the experiment on DMS 273 small cell lung, in the experiment on LXFL 529 NSCLC and in the experiment on SNB-78 CNS was greater than 100 µM each time.

In the case of `CC(C)[C@](O)(C(=O)OCC1=CCN2CC[C@@H](O)[C@@H]12)[C@H](C)O`, the TGI was greater than 375 µM in the experiment with DLD-1 colon; greater than 375 µM in the experiment on DMS 273 small cell lung; greater than 375 µM in the experiment on HOP-18 NSCLC; greater than 256 µM in the experiment on M19-MEL melanoma; greater than 375 µM in the experiment with P388 leukemia; greater than 375 µM with P388/ADR leukemia. For the same compound, the TGI with SN12K1 renal, with SNB-78 CNS and in the experiment on XF 498 CNS was greater than 375 µM throughout.

In the case of `CCN(CC)CC(=O)Nc1ccc2c(c1)C(=O)c1ccc(NC(=O)CN(CC)CC)cc1C2=O`, the TGI in the experiment on DLD-1 colon was greater than 100 µM; in the experiment on DMS 273 small cell lung, greater than 100 µM; with LXFL 529 NSCLC it was 49 µM; with M19-MEL melanoma, greater than 100 µM; with SNB-78 CNS, greater than 100 µM.

`COc1ccc(-c2nc3c(nc2-c2ccc(OC)cc2)N(C)S(=O)(=O)N=C3N)cc1`: the TGI in the experiment on DLD-1 colon, in the experiment with DMS 273 small cell lung, in the experiment with HOP-18 NSCLC, with LXFL 529 NSCLC and with M19-MEL melanoma was greater than 100 µM each time.

For the compound `Cc1cc(C)c(C(=O)/C=C/c2ccccc2)c(C)c1`, the TGI was 68.9 µM in the experiment on DLD-1 colon; greater than 100 µM in the experiment with HOP-18 NSCLC; greater than 100 µM in the experiment on LXFL 529 NSCLC; greater than 100 µM in the experiment with M19-MEL melanoma; 26.5 µM in the experiment with XF 498 CNS.

In the case of `CCCCS(=O)CC(CO)NC(=O)/C=C/c1c(C)[nH]c(=O)[nH]c1=O` (configuration not stated), the TGI was 72.1 µM in the experiment on DLD-1 colon; 52.7 µM with DMS 273 small cell lung; 183 µM in the experiment on HOP-18 NSCLC; 18.1 µM in the experiment with M19-MEL melanoma; 6.93 µM in the experiment with P388 leukemia; 59.2 µM in the experiment on P388/ADR leukemia. For the same compound, the figures for the TGI with SN12K1 renal and in the experiment on XF 498 CNS were 24.1 µM and 14 µM, respectively.

For `COc1ccc2c(c1)CCN1C3=C(CCC3)C(=O)C[C@@H]21`, the TGI with DMS 273 small cell lung, in the experiment with HOP-18 NSCLC, in the experiment with LXFL 529 NSCLC, with M19-MEL melanoma, in the experiment on SNB-78 CNS and with XF 498 CNS was greater than 100 µM each time.

On to `Cn1c(=O)c2nc(NCCO)cnc2n(C)c1=O`, for which the TGI with DLD-1 colon, in the experiment with DMS 273 small cell lung, in the experiment on LXFL 529 NSCLC, in the experiment on M19-MEL melanoma, in the experiment with SNB-78 CNS and in the experiment on XF 498 CNS was greater than 100 µM in each case.

Regarding `Clc1cccc2c1OCC1C(c3ccccc3)=NN(c3ccccc3)C21` (configuration not stated), the TGI in the experiment with DLD-1 colon, in the experiment on DMS 273 small cell lung, with HOP-18 NSCLC, with LXFL 529 NSCLC, with M19-MEL melanoma and with RXF-631 renal was greater than 100 µM each time. The TGI in the experiment on SNB-78 CNS and with XF 498 CNS was greater than 100 µM each time.

With `O=C1CCCN1CCCN=c1cc2n(-c3ccc(Cl)cc3)c3ccccc3nc-2cc1Nc1ccc(Cl)cc1`, the TGI with DLD-1 colon was 28.3 µM; with DMS 273 small cell lung, 43.6 µM; with HOP-18 NSCLC, greater than 92.4 µM; in the experiment on M19-MEL melanoma, 5.45 µM; with P388 leukemia, 13 µM; in the experiment on P388/ADR leukemia, 15.4 µM. Besides, the TGI in the experiment with SN12K1 renal stood at 23.3 µM; in the experiment on SNB-78 CNS it was 75.2 µM; in the experiment with XF 498 CNS, 35.3 µM.

As for `O=[N+]([O-])c1ccc(COc2cccc3cccnc23)cc1`, the TGI is 71.2 µM in the experiment with DLD-1 colon; 20.8 µM with DMS 273 small cell lung; greater than 100 µM with HOP-18 NSCLC; greater than 100 µM with LXFL 529 NSCLC; 38.2 µM in the experiment on M19-MEL melanoma; 33.3 µM with RXF-631 renal. Also, the TGI in the experiment with SNB-78 CNS is greater than 100 µM; in the experiment with XF 498 CNS it was 67.5 µM.

For the compound `COC(=O)C1C(O)C(C)C(O)OC1C(C)C(O)C(C)/C=C\C=C(/C)C(=O)Nc1c(C)c(OC(C)=O)c2c(c1O)C(=O)C(C)=C1OCOC(/C(C)=C/C(C)=O)=C12` (configuration not stated), the TGI with DLD-1 colon is 19.4 µM; in the experiment with DMS 273 small cell lung it was 25 µM; in the experiment with HOP-18 NSCLC, 28.7 µM; in the experiment with M19-MEL melanoma, 26 µM; with P388 leukemia it was 12.4 µM; with P388/ADR leukemia, 39.4 µM. In addition, the TGI in the experiment on SN12K1 renal was 25.6 µM; in the experiment on SNB-78 CNS, 24.9 µM; with XF 498 CNS, 24.6 µM.
